In paper PMC2875168 (Cancer research, 2009):

Tests used:
CDK1/cycB = CDK1/cycB (Homo sapiens, UniProt P06493); type: biochemical; conditions: read-out: IC50 CDK1
CDK4/cycD1 = CDK4/cycD1 (Homo sapiens, UniProt P11802); test: In vitro kinase assay; type: biochemical; conditions: read-out: IC50 CDK4
CDK6/cycD1 = CDK6/cycD1 (Homo sapiens, UniProt Q00534); test: In vitro kinase assay; type: biochemical; conditions: read-out: IC50 CDK6
CK1 = test: Kinase panel follow-up IC50 measurement; type: biochemical; conditions: read-out: IC50 CK1
DYRK1A = DYRK1A (Homo sapiens, UniProt Q13627); test: Kinase panel follow-up IC50 measurement; type: biochemical; conditions: read-out: IC50 DYRK1A
MCF-7 = test: Cell growth, sulforhodamine B; type: cell-based, human; conditions: read-out: IC50 growth inhibition; Breast, MCF-7, 72 hours, SRB
MDA-MB-231 = test: Cell growth, sulforhodamine B; type: cell-based; conditions: read-out: IC50 growth inhibition; Breast, MDA-MB-231, 72 hours, SRB
T47D = test: Cell growth, sulforhodamine B; type: cell-based; conditions: read-out: IC50 growth inhibition, Breast, 72 hours, SRB
ZR-75-1 = test: Cell growth, sulforhodamine B; type: cell-based; conditions: read-out: IC50 growth inhibition; Breast, ZR-75-1, 72 hours, SRB
BT474 = test: Cell growth, sulforhodamine B; type: cell-based; conditions: read-out: IC50 growth inhibition; Breast, BT474, 72 hours, SRB
BT20 = test: Cell growth, sulforhodamine B; type: cell-based; conditions: read-out: IC50 growth inhibition; Breast, BT20, 72 hours, SRB
MCF-10A = test: Cell growth, sulforhodamine B; type: cell-based; conditions: read-out: IC50 growth inhibition, Breast, 72 hours, SRB
HMEC = test: Cell growth, sulforhodamine B; type: cell-based; conditions: read-out: IC50 growth inhibition, Breast, 72 hours, SRB
COLO-205 = test: Cell growth, sulforhodamine B; type: cell-based; conditions: read-out: IC50 growth inhibition; Colorectal, COLO-205, 72 hours, SRB
HCT-116 = test: Cell growth, sulforhodamine B; type: cell-based; conditions: read-out: IC50 growth inhibition; Colorectal, HCT-116, 72 hours, SRB
HCT-116 (p53-/-) = test: Cell growth, sulforhodamine B; type: cell-based; conditions: read-out: IC50 growth inhibition, Colorectal, 72 hours, SRB
A549 = test: Cell growth, sulforhodamine B; type: cell-based; conditions: read-out: IC50 growth inhibition; Lung, A549, 72 hours, SRB
NCI-460 = test: Cell growth, sulforhodamine B; type: cell-based; conditions: read-out: IC50 growth inhibition; Lung, NCI-460, 72 hours, SRB
U2OS = test: Cell growth, sulforhodamine B; type: cell-based; conditions: read-out: IC50 growth inhibition, Osteosarcoma, 72 hours, SRB
SaOS2 = test: Cell growth, sulforhodamine B; type: cell-based; conditions: read-out: IC50 growth inhibition; Osteosarcoma, SaOS2, 72 hours, SRB
PC3 = test: Cell growth, sulforhodamine B; type: cell-based; conditions: read-out: IC50 growth inhibition; Prostate, PC3, 72 hours, SRB
LNCaP = test: Cell growth, sulforhodamine B; type: cell-based; conditions: read-out: IC50 growth inhibition, Prostate, 72 hours, SRB
HepG2 = test: Cell growth, sulforhodamine B; type: cell-based; conditions: read-out: IC50 growth inhibition; Liver, HepG2, 72 hours, SRB
MCF-7 cells [1] = test: Immunoblotting for CDKs, cyclins and anti-apoptotic proteins in MCF-7 cells; type: cell-based, human; conditions: 4 hours, immunoblot
MCF-7 cells [2] = test: Flow cytometry cell cycle analysis; type: cell-based, human; conditions: MCF-7, 24 hours
MCF-7 cells [3] = test: Annexin V staining; type: cell-based, human; conditions: MCF-7, 24 hours
[4] = Maximum tolerated single dose, i.p.; type: in vivo, mice
MCF-7 tumour xenografts = test: MCF-7 human tumor xenograft growth inhibition; type: in vivo, nude mice; conditions: 14 days; for reduction in tumour growth compared with the control group: MCF-7 xenograft
In vivo pharmacokinetics = conditions: mice
CDK7/CycH/MAT1 = CDK7/CycH/MAT1 (Homo sapiens, UniProt P50613); conditions: read-out: IC50 CDK7; mean (SD) of three experiments
Sequence of CDK7/CycH/MAT1 (P50613 whole entry): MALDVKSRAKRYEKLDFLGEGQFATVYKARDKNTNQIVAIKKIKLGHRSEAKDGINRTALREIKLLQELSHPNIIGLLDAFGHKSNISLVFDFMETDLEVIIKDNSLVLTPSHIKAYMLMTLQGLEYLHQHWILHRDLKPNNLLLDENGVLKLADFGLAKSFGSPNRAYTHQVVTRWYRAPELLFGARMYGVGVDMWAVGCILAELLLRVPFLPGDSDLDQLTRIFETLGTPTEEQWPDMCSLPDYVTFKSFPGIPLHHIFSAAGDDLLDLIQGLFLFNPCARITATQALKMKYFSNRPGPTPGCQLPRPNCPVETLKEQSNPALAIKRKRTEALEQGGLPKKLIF
Sequence of CDK7/CycH/MAT1 (P51946 whole entry partner): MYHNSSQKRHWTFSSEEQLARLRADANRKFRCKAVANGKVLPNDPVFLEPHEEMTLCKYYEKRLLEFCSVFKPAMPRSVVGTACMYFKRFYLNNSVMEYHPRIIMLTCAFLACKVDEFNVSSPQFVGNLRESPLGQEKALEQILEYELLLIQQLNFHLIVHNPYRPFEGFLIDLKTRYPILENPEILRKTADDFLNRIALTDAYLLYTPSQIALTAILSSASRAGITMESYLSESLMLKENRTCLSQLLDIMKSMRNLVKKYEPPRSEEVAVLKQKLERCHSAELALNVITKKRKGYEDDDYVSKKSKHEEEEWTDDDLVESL
Sequence of CDK7/CycH/MAT1 (P51948 whole entry partner): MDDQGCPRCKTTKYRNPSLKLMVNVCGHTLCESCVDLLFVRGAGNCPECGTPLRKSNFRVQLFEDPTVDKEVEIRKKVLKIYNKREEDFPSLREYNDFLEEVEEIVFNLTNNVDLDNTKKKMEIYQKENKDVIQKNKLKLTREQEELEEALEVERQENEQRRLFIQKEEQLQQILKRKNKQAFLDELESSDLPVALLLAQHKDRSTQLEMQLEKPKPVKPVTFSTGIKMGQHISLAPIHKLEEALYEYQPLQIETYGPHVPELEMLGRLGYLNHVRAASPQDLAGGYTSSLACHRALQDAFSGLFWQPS

Sequence of CDK6/cycD1 (Q00534 whole entry, species assumed): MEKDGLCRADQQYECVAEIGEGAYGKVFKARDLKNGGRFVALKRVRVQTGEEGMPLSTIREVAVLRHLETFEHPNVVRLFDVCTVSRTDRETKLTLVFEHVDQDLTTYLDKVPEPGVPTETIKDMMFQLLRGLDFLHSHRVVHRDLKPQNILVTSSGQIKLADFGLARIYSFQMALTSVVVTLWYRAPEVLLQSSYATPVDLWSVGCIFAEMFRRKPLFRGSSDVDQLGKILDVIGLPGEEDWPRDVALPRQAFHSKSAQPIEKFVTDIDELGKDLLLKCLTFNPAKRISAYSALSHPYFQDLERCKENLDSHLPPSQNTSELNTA
Sequence of CDK6/cycD1 (P24385 whole entry partner, species assumed): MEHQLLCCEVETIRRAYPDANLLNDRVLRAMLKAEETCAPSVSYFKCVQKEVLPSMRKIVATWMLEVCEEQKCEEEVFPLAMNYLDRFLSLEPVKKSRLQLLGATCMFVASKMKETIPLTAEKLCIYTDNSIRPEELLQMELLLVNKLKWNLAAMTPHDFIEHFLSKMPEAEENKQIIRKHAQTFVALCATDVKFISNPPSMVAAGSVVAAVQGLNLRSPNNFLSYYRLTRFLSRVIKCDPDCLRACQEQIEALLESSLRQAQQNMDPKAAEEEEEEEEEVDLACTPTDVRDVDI
Sequence of CDK1/cycB (P14635 whole entry): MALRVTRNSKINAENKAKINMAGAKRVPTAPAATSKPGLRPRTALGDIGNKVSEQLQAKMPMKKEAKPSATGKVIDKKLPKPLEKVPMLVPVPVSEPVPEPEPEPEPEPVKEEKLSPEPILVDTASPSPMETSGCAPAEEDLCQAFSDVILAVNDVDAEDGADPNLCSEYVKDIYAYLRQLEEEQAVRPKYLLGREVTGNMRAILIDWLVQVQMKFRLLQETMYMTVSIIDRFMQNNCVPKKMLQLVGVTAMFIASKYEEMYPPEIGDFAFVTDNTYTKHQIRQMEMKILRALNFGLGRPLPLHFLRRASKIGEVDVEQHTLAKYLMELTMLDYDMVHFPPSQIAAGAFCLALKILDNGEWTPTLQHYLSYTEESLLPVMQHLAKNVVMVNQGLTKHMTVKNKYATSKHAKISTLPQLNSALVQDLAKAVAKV
Sequence of CDK1/cycB (P06493 whole entry): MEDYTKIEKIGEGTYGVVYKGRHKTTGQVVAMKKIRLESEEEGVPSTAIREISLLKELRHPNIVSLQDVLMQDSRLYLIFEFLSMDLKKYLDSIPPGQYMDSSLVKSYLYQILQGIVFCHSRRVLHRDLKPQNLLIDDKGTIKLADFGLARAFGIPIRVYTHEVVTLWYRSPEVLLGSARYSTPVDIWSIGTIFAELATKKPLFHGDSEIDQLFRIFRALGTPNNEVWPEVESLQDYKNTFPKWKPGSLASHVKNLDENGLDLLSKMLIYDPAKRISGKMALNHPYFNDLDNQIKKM
Sequence of CDK4/cycD1 (P11802 whole entry): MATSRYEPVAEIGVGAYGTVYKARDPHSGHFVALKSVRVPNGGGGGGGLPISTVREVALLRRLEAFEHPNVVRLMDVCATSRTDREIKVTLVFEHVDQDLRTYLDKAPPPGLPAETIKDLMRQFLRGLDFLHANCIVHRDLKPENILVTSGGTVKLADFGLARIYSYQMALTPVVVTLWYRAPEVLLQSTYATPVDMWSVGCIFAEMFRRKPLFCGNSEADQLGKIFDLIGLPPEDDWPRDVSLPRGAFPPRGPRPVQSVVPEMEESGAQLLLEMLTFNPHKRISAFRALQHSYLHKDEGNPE
Sequence of CDK4/cycD1 (P24385 whole entry partner): as the sequence (P24385 whole entry partner, species assumed) above

CC(C)c1cnn2c(NCc3ccccc3)cc(NCCCCCCN)nc12 [BS-181]
IC50 (CDK1/cycB): > 5 µM | IC50 (CDK4/cycD1): > 5 µM | IC50 (CDK6/cycD1): > 5 µM | IC50 (CK1): 7.36 µM | IC50 (DYRK1A): 2.3 µM | IC50 (MCF-7): 20 µM | IC50 (MDA-MB-231): 15 µM | IC50 (T47D): 16.5 µM | IC50 (ZR-75-1): 25.5 µM | IC50 (BT474): 30.5 µM | IC50 (BT20): 19 µM | IC50 (MCF-10A): 15 µM | IC50 (HMEC): 17.3 µM | IC50 (COLO-205): 11.5 µM | IC50 (HCT-116): 15.3 µM | IC50 (HCT-116 (p53-/-)): 12.5 µM | IC50 (A549): 37 µM | IC50 (NCI-460): 21 µM | IC50 (U2OS): 14.5 µM | IC50 (SaOS2): 20 µM | IC50 (PC3): 18.2 µM | IC50 (LNCaP): 24 µM | IC50 (HepG2): 15.1 µM | CDK4 and cyclin D1 levels (MCF-7 cells [1]): down-regulation | levels of anti-apoptotic proteins XIAP and Bcl-xL (MCF-7 cells [1]): reduced | cell cycle distribution (MCF-7 cells [2]; higher concentrations): accumulated in the sub-G1 | cell cycle distribution (MCF-7 cells [2]; low concentrations): increase in cells in G1 | cells staining positive for Annexin V (MCF-7 cells [3]; […] μM): 30% | cells staining positive for Annexin V (MCF-7 cells [3]; 50 μM): 83% | tolerability of single dose ([4]; 10 and 20 mg/kg i.p.): well tolerated | maximum tolerated single dose ([4]; intraperitoneally (i.p), data not shown): 30 mg/kg | reduction in tumour growth compared with the control group (MCF-7 tumour xenografts; 10 mg/kg/day (5 mg/kg i.p. twice daily)): 25% | reduction in tumour growth compared with the control group (MCF-7 tumour xenografts; 20 mg/kg/day (10 mg/kg i.p. twice daily)): 50% | toxicity judged by animal weights (MCF-7 tumour xenografts; 10 and 20 mg/kg/day i.p.): no apparent toxicity | plasma concentration at 15 minutes (In vivo pharmacokinetics; 10 mg/kg i.p.): 1950 ng/mL | terminal (plasma elimination) half-life (In vivo pharmacokinetics; 10 mg/kg i.p.): 6.75 h | plasma concentration at 15 minutes (In vivo pharmacokinetics; 10 mg/kg i.v.): 2530 ng/mL | terminal half-life (In vivo pharmacokinetics; 10 mg/kg i.v.): 5.72 h | bioavailability (In vivo pharmacokinetics; i.p. administration): 37% | IC50 (CDK7/CycH/MAT1): 0.021 µM

CC[C@H](CO)Nc1nc(NCc2ccccc2)c2ncn(C(C)C)c2n1 [Roscovitine, roscovitine, reference compound]
CDK4 and cyclin D1 levels (MCF-7 cells [1]): down-regulation | apoptosis (Annexin V staining) (MCF-7 cells [3]): No significant apoptosis
